Reference: ChEMBL document CHEMBL4002627, “Quinolidene based monocarbonyl curcumin analogues as promising antimycobacterial agents: Synthesis and molecular docking study” (Bioorg Med Chem Lett, 2017)
In brackets after ≈: the same amount, converted by molar mass.

How the values were obtained:
[1] = Cytotoxicity against human A549 cells assessed as growth inhibition at 3 ug/ml after 48 hrs by MTT assay relative to control; format: cell-based; conditions: read-out: GI
[2] = Cytotoxicity against human HCT116 cells assessed as growth inhibition at 30 ug/ml after 48 hrs by MTT assay relative to control; format: cell-based, HCT-116; conditions: read-out: GI
[3] = system: Mycobacterium tuberculosis; assay: Antimycobacterial activity against dormant state of Mycobacterium tuberculosis H37Ra assessed as growth inhibition at 30 ug/ml after 12 days by XTT reduction menadione assay relative to control; format: functional; conditions: 288 h, read-out: GI
[4] = Cytotoxicity against human A549 cells assessed as growth inhibition at 10 ug/ml after 48 hrs by MTT assay relative to control; format: cell-based; conditions: read-out: GI
[5] = Cytotoxicity against human HCT116 cells assessed as growth inhibition at 3 ug/ml after 48 hrs by MTT assay relative to control; format: cell-based, HCT-116; conditions: read-out: GI
[6] = system: Mycobacterium tuberculosis; assay: Antimycobacterial activity against dormant state of Mycobacterium tuberculosis H37Ra assessed as growth inhibition at 3 ug/ml after 12 days by XTT reduction menadione assay relative to control; format: functional; conditions: 288 h, read-out: GI
[7] = Cytotoxicity against human MCF7 cells assessed as growth inhibition at 30 ug/ml after 48 hrs by MTT assay relative to control; format: cell-based; conditions: read-out: GI
[8] = Cytotoxicity against human A549 cells assessed as growth inhibition at 30 ug/ml after 48 hrs by MTT assay relative to control; format: cell-based; conditions: read-out: GI
[9] = system: Mycobacterium tuberculosis; assay: Antimycobacterial activity against dormant state of Mycobacterium tuberculosis H37Ra assessed as growth inhibition at 10 ug/ml after 12 days by XTT reduction menadione assay relative to control; format: functional; conditions: 288 h, read-out: GI
[10] = Cytotoxicity against human MCF7 cells assessed as growth inhibition at 10 ug/ml after 48 hrs by MTT assay relative to control; format: cell-based; conditions: read-out: GI
[11] = system: Mycobacterium tuberculosis; assay: Antimycobacterial activity against dormant state of Mycobacterium tuberculosis H37Ra by two fold dilution method; format: functional
[12] = Cytotoxicity against human MCF7 cells assessed as growth inhibition at 3 ug/ml after 48 hrs by MTT assay relative to control; format: cell-based; conditions: read-out: GI
[13] = Cytotoxicity against human HCT116 cells assessed as growth inhibition at 10 ug/ml after 48 hrs by MTT assay relative to control; format: cell-based, HCT-116; conditions: read-out: GI
[14] = (§1) Cytotoxicity against human MCF7 cells assessed as growth inhibition after 48 hrs by MTT assay; format: cell-based; conditions: MCF7 cells
MCF7 = assay: as §1; format: cell-based; conditions: mcf7, 48 h
Staphylococcus aureus = assay: Antibacterial activity against Staphylococcus aureus ATCC 29213 after 12 hrs; format: functional; conditions: ATCC 29213, 12 h
Escherichia coli = assay: Antibacterial activity against Escherichia coli ATCC […] after 8 hrs; format: functional
[15] = (§2) Cytotoxicity against human A549 cells assessed as growth inhibition after 48 hrs by MTT assay; format: cell-based; conditions: A549 cells
A549 = assay: as §2; format: cell-based; conditions: a549, 48 h
Pseudomonas fluorescens = assay: Antibacterial activity against Pseudomonas fluorescens ATCC 13525 after 8 hrs; format: functional; conditions: ATCC 13525, 8 h
Bacillus subtilis = assay: Antibacterial activity against Bacillus subtilis ATCC 23857 after 12 hrs; format: functional; conditions: ATCC 23857, 12 h
[16] = (§3) Cytotoxicity against human HCT116 cells assessed as growth inhibition after 48 hrs by MTT assay; format: cell-based, HCT-116; conditions: HCT116 cells
HCT-116 = assay: as §3; format: cell-based; conditions: hct-116, 48 h

SMILES	inhibition at 48 h, 3 ug/ml [1] [%]	inhibition at 48 h, 30 ug/ml [2] [%]	inhibition of growth at 30 µg/mL [3] [%]	inhibition at 48 h, 10 ug/ml [4] [%]	inhibition at 48 h, 3 ug/ml [5] [%]	inhibition of growth at 3 µg/mL [6] [%]	inhibition at 48 h, 30 ug/ml [7] [%]	inhibition at 48 h, 30 ug/ml [8] [%]	inhibition of growth at 10 µg/mL [9] [%]	inhibition at 48 h, 10 ug/ml [10] [%]	MIC50 [11] [µg/mL]	MIC90 [11] [µg/mL]	inhibition at 48 h, 3 ug/ml [12] [%]	inhibition at 48 h, 10 ug/ml [13] [%]	GI50 at 48 h [14] [µg/mL]	GI90 (MCF7) [µg/mL]	MIC50 (Staphylococcus aureus) [µg/mL]	GI90 (A549) [µg/mL]	GI50 at 48 h [16] [µg/mL]	GI90 (HCT-116) [µg/mL]	also measured
O=C1/C(=C/c2cc3ccccc3nc2Cl)CNC/C1=C\c1cc2ccccc2nc1Cl	0	0	33.3	0	0	9.6	26.3	-14.1	43.6	23.2	> 30	> 30	22.2	0	–	–	–	–	–	–	–
CN1C/C(=C\c2cc3cc(Cl)ccc3nc2Cl)C(=O)/C(=C/c2cc3cc(Cl)ccc3nc2Cl)C1	0	11.7	43.1	48.9	2	35.4	58.7	48.9	7.2	42.8	> 30	> 30	22.8	11.9	29.8 (≈ 56.3 µM)	> 100	> 30	> 100	> 100	> 100	MIC90 (Staphylococcus aureus): > 30 µg/mL; MIC50 (Escherichia coli): > 30 µg/mL; MIC90 (Escherichia coli): > 30 µg/mL; GI50 at 48 h [15]: > 100 µg/mL; MIC50 (Pseudomonas fluorescens): > 30 µg/mL; MIC90 (Pseudomonas fluorescens): > 30 µg/mL; MIC50 (Bacillus subtilis): > 30 µg/mL; MIC90 (Bacillus subtilis): > 30 µg/mL
Cc1ccc2cc(/C=C3\CNC/C(=C\c4cc5ccc(C)cc5nc4Cl)C3=O)c(Cl)nc2c1	5.4	33.8	98.3	-16.9	29.7	5.8	15.7	0	61.2	10.1	8.7 (≈ 18.3 µM)	25.5 (≈ 53.8 µM)	-3.4	30.9	> 100	> 100	> 30	> 100	> 100	> 100	MIC90 (Staphylococcus aureus): > 30 µg/mL; MIC50 (Escherichia coli): > 30 µg/mL; MIC90 (Escherichia coli): > 30 µg/mL; GI50 at 48 h [15]: > 100 µg/mL; MIC50 (Pseudomonas fluorescens): > 30 µg/mL; MIC90 (Pseudomonas fluorescens): > 30 µg/mL; MIC50 (Bacillus subtilis): > 30 µg/mL; MIC90 (Bacillus subtilis): > 30 µg/mL
Cc1cccc2cc(/C=C3\CNC/C(=C\c4cc5cccc(C)c5nc4Cl)C3=O)c(Cl)nc12	0	13.7	12.6	0	3.2	4.6	0	-13.9	32.7	0	> 30	> 30	0	10.4	–	–	–	–	–	–	–
COc1ccc2nc(Cl)c(/C=C3\CNC/C(=C\c4cc5cc(OC)ccc5nc4Cl)C3=O)cc2c1	0	0	95.4	0	0	31.2	27.4	0	44.7	32.5	12.1 (≈ 23.9 µM)	27.9 (≈ 55.1 µM)	4.7	0	8.93 (≈ 17.6 µM)	> 100	> 30	> 100	9.83 (≈ 19.4 µM)	> 100	MIC90 (Staphylococcus aureus): > 30 µg/mL; MIC50 (Escherichia coli): > 30 µg/mL; MIC90 (Escherichia coli): > 30 µg/mL; GI50 at 48 h [15]: > 100 µg/mL; MIC50 (Pseudomonas fluorescens): > 30 µg/mL; MIC90 (Pseudomonas fluorescens): > 30 µg/mL; MIC50 (Bacillus subtilis): > 30 µg/mL; MIC90 (Bacillus subtilis): > 30 µg/mL
Cc1ccc2nc(Cl)c(/C=C3\CNC/C(=C\c4cc5cc(C)ccc5nc4Cl)C3=O)cc2c1	-18.7	21.8	34.4	0	5.5	9.9	14.2	0	28.5	17.7	> 30	> 30	0.9	16.3	–	–	–	–	–	–	–
Cc1ccc2cc(/C=C3\CN(C)C/C(=C\c4cc5ccc(C)cc5nc4Cl)C3=O)c(Cl)nc2c1	30.2	27.4	98.6	34.6	12.9	-17.1	63.7	45.7	81.7	52	7.7 (≈ 15.8 µM)	20 (≈ 40.9 µM)	46.1	13.7	8.23 (≈ 16.9 µM)	> 100	> 30	> 100	> 100	> 100	MIC90 (Staphylococcus aureus): > 30 µg/mL; MIC50 (Escherichia coli): > 30 µg/mL; MIC90 (Escherichia coli): > 30 µg/mL; GI50 at 48 h [15]: > 100 µg/mL; MIC50 (Pseudomonas fluorescens): > 30 µg/mL; MIC90 (Pseudomonas fluorescens): > 30 µg/mL; MIC50 (Bacillus subtilis): > 30 µg/mL; MIC90 (Bacillus subtilis): > 30 µg/mL
CC(=O)O[C@H]1C(=O)[C@@]2(C)[C@H]([C@H](OC(=O)c3ccccc3)[C@]3(O)C[C@H](OC(=O)[C@H](O)[C@@H](NC(=O)c4ccccc4)c4ccccc4)C(C)=C1C3(C)C)[C@]1(OC(C)=O)CO[C@@H]1C[C@@H]2O [PACLITAXEL]	–	–	–	–	–	–	–	–	–	–	–	–	–	–	–	0.075 (≈ 0.0878 µM)	–	0.0706 (≈ 0.0827 µM)	0.128 (≈ 0.15 µM)	5.715 (≈ 6.69 µM)	–
